The source of these data is patent US7687609B2, “Galectin-glycosaminoglycan complex and method for controlling galectin activity” (National Institute of Advanced Industrial Science and …, priority 2006, dated 2010).

One experiment has as its target T1, Galectin-1 (Homo sapiens, UniProt P09382).
T1 construct: made in house
Nature of the experiment: FAC affinity test on galectin-immobilized column. The experiment is classed as binding. The following applies: for V − V0 Value: pyridyl-aminated carbohydrate, galectin-1 immobilized 0.8 mg/ml, less than 5 μl = below interaction detection limit; for binding to galectin-1 (in words): text statement on the FAC results. The protocol: (§1) Various galectin molecules-immobilized columns were prepared by the method described by Nakamura S, Yagi F, Totani K, Ito γ and Hirabayashi J in FEBS J., 272, 2784-2799 (2005), using NHS Sepharose (manufactured by Amersham Bioscience) as the carrier for immobilizing galectin molecules and in accordance with the instructions attached thereto (put in parentheses is immobilization concentration, mg galectin/ml carrier).
(§2) Each galectin molecule was immobilized onto the carrier at the following concentration; galectin-1 (0.8 mg/ml), galectin-3 (0.5 mg/ml), galectin-8N (3.6 mg/ml), galectin-8C (4.0 mg/ml), galectin-9N (3.6 mg/ml), galectin-9C (3.0 mg/ml). The carrier on which each galectin was immobilized was charged into a stainless steel miniature column (2 mm in inner diameter, 10 mm in length; manufactured by Shimadzu Corp.).
(§3) A high performance liquid chromatography (HPLC) system was equipped with a galectin molecule-immobilized column, and the test was carried out by the method described in Nakamura S, Yagi F, Totani K, Ito γ and Hirabayashi J in FEBS J., 272, 2784-2799 (2005).
(§4) As the negative control sample, pyridyl-aminated N-acetylglucosamine (PA-GlcNAc, manufactured by Takara Bio, pyridyl-aminated glycosaminoglycan-oligosaccharide sample control) or pyridyl-aminated pullulan (prepared by carrying out pyridylamination of standard pullulan manufactured by Shodex, pyridyl-aminated glycosaminoglycan polysaccharide sample control) was used, and a V−V0 value was calculated from their eluate volume (V0 value) measured by fluorescence detection and the eluate volume (V value) of the sample, namely pyridyl-aminated glycosaminoglycan carbohydrate, and this was used as the index of interaction strength (Protein, Nucleic Acid and Enzyme, 48(8), 1206-1212 (2003)).
(§5) V−V0 values of pyridyl-aminated glycosaminoglycans (HA, CH, DN, NAH, CSA, CSB, CSC, CSD, CSE, KS-I and KS-II) were calculated based on PA-GlcNAc, and V−V0 values of pyridyl-aminated glycosaminoglycan-oligosaccharides (G2K1, G1L1, G4L4, L2L2, L2L4, L4L4, SL2L4 and CH3 to CH12) based on pyridyl-aminated pullulan, respectively.
(§6) In this connection, when the calculated value of the V−V0 value was less than 5 μl, it was regarded as less than the interaction detection limit in this example.

In experiment [1] the target is T2, Galectin-3 (Homo sapiens, UniProt P17931).
T2 construct: made in house
Nature of the experiment: FAC affinity test on galectin-immobilized column. The experiment is classed as binding. The following applies: for V − V0 Value: pyridyl-aminated carbohydrate, galectin-3 immobilized 0.5 mg/ml, less than 5 μl = below interaction detection limit; for binding to galectin-3 (in words): text statement on the FAC results. The protocol:
as §1, §2, §3, §4, §5, §6

The target in another experiment is T3, Galectin-9C (Homo sapiens, UniProt O00182).
T3 construct: N and C respectively represent N-terminal side carbohydrate-recognition domain and C-terminal side carbohydrate-recognition domain; made in house
The experiment in a line: FAC affinity test on galectin-immobilized column. The experiment is classed as binding. The following applies: for V − V0 Value: pyridyl-aminated carbohydrate, galectin-9C immobilized 3.0 mg/ml, less than 5 μl = below interaction detection limit; for binding to galectin-9C (in words): text statement on the FAC results. The protocol: as §1, §2, §3, §4, §5, §6

Another experiment addresses T4, Galectin-9N (Homo sapiens, UniProt O00182).
T4 construct: N and C respectively represent N-terminal side carbohydrate-recognition domain and C-terminal side carbohydrate-recognition domain; made in house
The experiment in a line: FAC affinity test on galectin-immobilized column. The experiment is classed as binding. Particulars: for V − V0 Value: pyridyl-aminated carbohydrate, galectin-9N immobilized 3.6 mg/ml, less than 5 μl = below interaction detection limit; for binding to galectin-9N (in words): text statement on the FAC results. The procedure:
as §1, §2, §3, §4, §5, §6

For experiment [2], the target named is T2, Galectin-3. Nature of the experiment: FAC competitive inhibition test, binding of galectin-3 with LNnT. Particulars: final conc. 10 μM unlabeled inhibitor, 5.0 nM PA-LNnT. The procedure: A model test on a competitive inhibition was carried out by FAC, in which binding of a galectin molecule with a carbohydrate which binds to the galectin molecule is inhibited by a glycosaminoglycan molecule. The FAC was carried out in accordance with the above-described example (1). In addition, as a model carbohydrate which is known to be bound to the galectin molecule, a pyridylamination product of lacto-N-neotetraose (LNnT hereinafter, Gal β1-4 GlcNAc β1-3 Gal β1-4 Glc, purchased from Seikagaku Corporation) was used.
In the test, 5.0 nM in final concentration of PA-LNnT sample solution was mixed with various concentration of glycosaminoglycan molecule (not pyridyl-aminated, namely an inhibitory carbohydrate) to measure the eluate volume (V2 value) by FAC, and the inhibition ratio (%) was calculated as follows from the eluate volume (V1 value) before the mixing and the eluate volume (V0 value) of a negative control sample. Inhibition ratio (%)=100×(V1−V2)/(V1−V0) Formula 1
In this connection, the unlabeled (not pyridyl-aminated) CH4, CH6, CH10, HA4 and CSA4 were respectively prepared at Seikagaku Corporation in accordance with a conventionally known method.

Another experiment has as its target T5, Galectin-8C (Homo sapiens, UniProt O00214).
T5 construct: N and C respectively represent N-terminal side carbohydrate-recognition domain and C-terminal side carbohydrate-recognition domain; made in house
T5 sequence (O00214 187-317 limits assumed): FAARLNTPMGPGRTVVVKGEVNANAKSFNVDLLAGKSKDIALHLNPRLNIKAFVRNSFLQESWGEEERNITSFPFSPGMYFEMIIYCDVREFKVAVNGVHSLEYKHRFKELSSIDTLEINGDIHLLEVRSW
The experiment in a line: FAC affinity test on galectin-immobilized column. In kind it is binding. Particulars: pyridyl-aminated carbohydrate; galectin-8C immobilized 4.0 mg/ml; less than 5 μl = below interaction detection limit. The procedure:
as §1, §2, §3, §4, §5, §6

For the next experiment, the target named is T6, Galectin-8N (Homo sapiens, UniProt O00214).
T6 construct: N and C respectively represent N-terminal side carbohydrate-recognition domain and C-terminal side carbohydrate-recognition domain; made in house
T6 sequence (O00214 19-152 limits assumed): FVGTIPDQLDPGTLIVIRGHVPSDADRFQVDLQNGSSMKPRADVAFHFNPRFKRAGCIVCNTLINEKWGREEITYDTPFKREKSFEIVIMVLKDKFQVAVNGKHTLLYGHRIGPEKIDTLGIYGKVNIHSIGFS
Nature of the experiment: FAC affinity test on galectin-immobilized column. In kind it is binding. Particulars: pyridyl-aminated carbohydrate; galectin-8N immobilized 3.6 mg/ml; less than 5 μl = below interaction detection limit. The procedure: as §1, §2, §3, §4, §5, §6

Experiment [3] relates to tested galectin molecules (galectin-1, 3, 8N, 8C, 9N and 9C). Nature of the experiment: FAC affinity test, statements on the whole panel of tested galectins. The following applies: Table 3, whole galectin panel. In kind it is binding.
Excerpt: Using FAC, the present inventors have conducted a comprehensive analysis of the interactions between various galectin molecules (galectin-1, 3, 8N, 8C, 9N and 9C; N and C respectively represent N-terminal side carbohydrate-recognition domain and C-terminal side carbohydrate-recognition domain)-immobilized columns and various fluorescence-labeled glycosaminoglycan molecules. As a result, novel affinity was found by the combination of specific galectin molecules and glycosaminoglycan molecules to thereby accomplish the present invention.
as §3, §4, §6

T3 sequence (O00182 227-355 limits assumed): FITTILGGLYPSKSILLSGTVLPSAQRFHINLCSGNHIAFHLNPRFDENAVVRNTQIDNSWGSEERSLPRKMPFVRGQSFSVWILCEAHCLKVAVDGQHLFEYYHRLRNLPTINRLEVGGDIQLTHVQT
T1 sequence (P09382 whole entry): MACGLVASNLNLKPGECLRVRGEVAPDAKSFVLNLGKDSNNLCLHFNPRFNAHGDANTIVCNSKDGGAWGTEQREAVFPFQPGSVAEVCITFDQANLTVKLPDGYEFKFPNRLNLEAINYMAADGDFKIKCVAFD
T2 sequence (P17931 whole entry): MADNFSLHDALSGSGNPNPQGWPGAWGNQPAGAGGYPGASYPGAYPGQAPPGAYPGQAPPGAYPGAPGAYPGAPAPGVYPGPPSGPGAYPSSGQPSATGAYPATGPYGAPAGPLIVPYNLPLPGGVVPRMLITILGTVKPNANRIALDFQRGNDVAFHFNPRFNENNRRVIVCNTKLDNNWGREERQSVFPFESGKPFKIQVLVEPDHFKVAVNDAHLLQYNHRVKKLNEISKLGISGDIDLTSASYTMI
T4 sequence (O00182 17-148 limits assumed): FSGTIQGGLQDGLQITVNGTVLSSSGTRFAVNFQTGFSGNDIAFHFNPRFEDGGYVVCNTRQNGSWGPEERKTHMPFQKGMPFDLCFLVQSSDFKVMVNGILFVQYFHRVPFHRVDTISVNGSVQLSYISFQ

As for `CC(=O)N[C@H]1[C@H](O[C@H]2[C@H](O)[C@@H](O)[C@H](O[C@H]3[C@@H](O)[C@@H](CO)O[C@@H](O[C@H]4[C@H](O)[C@@H](O)[C@H](O[C@H]5[C@@H](O)[C@@H](CO)OC(O)[C@@H]5NC(C)=O)O[C@@H]4C(=O)O)[C@@H]3NC(C)=O)O[C@@H]2C(=O)O)O[C@H](CO)[C@H](O)[C@@H]1O[C@@H]1O[C@H](C(=O)O)[C@@H](O)[C@H](O)[C@H]1O` (stereo partly drawn) [CH6, GlcA β1-3 (GalNAc β1-4 GlcA β1-3)2 GalNAc], the “V − V0 Value” at Galectin-1 is <5.0 µL; on Galectin-3 [1], 5.8 ± 1.4 µL; on Galectin-9C, <5.0 µL; on Galectin-9N, 33.3 ± 3.0 µL. Moreover, the Inhibition ratio on Galectin-3 [2] turned out to be 5.2%. At Galectin-3 [2] (V1 − V0 30.6 μl), the “V2 − V0” value was 29.0 µL.

Take `CC(=O)NC1C(O)OC(COS(=O)(=O)[O-])C(OC2OC(COS(=O)(=O)[O-])C(O)C(OC3OC(COS(=O)(=O)[O-])C(OC4OC(COS(=O)(=O)[O-])C(O)C(O)C4O)C(O)C3NC(C)=O)C2O)C1O.[Na+].[Na+].[Na+].[Na+]` (stereo not drawn) [L4L4, Gal6S β1-4 GlcNAc6S β1-3 Gal6S β1-4 GlcNAc6S]: the “V − V0 Value” at Galectin-1, on Galectin-3 [1], at Galectin-8C, at Galectin-8N, at Galectin-9C and at Galectin-9N was <5.0 µL each time. Further, the “binding to the tested galectin molecules (in words)” value in experiment [3] is “did not bind”.

As to `CC(=O)N[C@H]1[C@H](O[C@H]2[C@@H](O)[C@@H](COS(=O)(=O)O)O[C@@H](O[C@H]3[C@H](O)[C@@H](NC(C)=O)C(O)O[C@@H]3COS(=O)(=O)O)[C@@H]2O)O[C@H](COS(=O)(=O)O)[C@@H](O)[C@@H]1O` (stereo partly drawn) [G4L4, GlcNAc6S β1-3 Gal6S β1-4 GlcNAc6S], the “V − V0 Value” at Galectin-1, at Galectin-3 [1], at Galectin-8C, at Galectin-8N, at Galectin-9C and on Galectin-9N was <5.0 µL in each case. Also, the “binding to the tested galectin molecules (in words)” value in experiment [3] is given as “did not bind”.

Turning to “chondroitin sulfate C [CSC, reference compound]”, the “V − V0 Value” on Galectin-1, at Galectin-3 [1], at Galectin-8C, at Galectin-8N, at Galectin-9C and on Galectin-9N was <5.0 µL throughout. Besides, the “binding to the tested galectin molecules (in words)” value in experiment [3] is recorded as “did not bind”.

For the molecule `CC(=O)N[C@H]1[C@H](O[C@H]2[C@@H](O)[C@@H](CO)OC(O)[C@@H]2O)O[C@H](CO)[C@@H](O[C@@H]2O[C@H](CO)[C@H](O)[C@H](O)[C@H]2O)[C@@H]1O` (stereo partly drawn) [G2K1, Gal β1-4 GlcNAc β1-3 Gal], the “V − V0 Value” on Galectin-1 was 21.8 ± 1.9 µL; on Galectin-3 [1] it was 11.6 ± 0.1 µL; at Galectin-8C, <5.0 µL; on Galectin-8N, <5.0 µL; on Galectin-9C, 6.7 ± 0.2 µL; at Galectin-9N, 5.1 ± 1.3 µL. Further, the “binding to galectin-1 (in words)” value at Galectin-1 was “showed binding affinity”. Also, the “binding to galectin-3 (in words)” value on Galectin-3 [1] was “showed binding affinity”. In addition, at Galectin-9C, the “binding to galectin-9C (in words)” value is given as “showed binding affinity”. Besides, the “binding to galectin-9N (in words)” value on Galectin-9N is “showed binding affinity”. For the same molecule, the “binding to the tested galectin molecules (in words)” value in experiment [3] is recorded as “bound to various galectin molecules”.

Consider “chondroitin sulfate A [CSA, reference compound]”, for which the “V − V0 Value” at Galectin-1, at Galectin-3 [1], on Galectin-8C, at Galectin-8N, at Galectin-9C and at Galectin-9N was <5.0 µL in each case. The “binding to the tested galectin molecules (in words)” value in experiment [3] is on record as “did not bind”.

For `CC(=O)N[C@H]1[C@H](O[C@H]2[C@@H](O)[C@@H](COS(=O)(=O)O)O[C@@H](O[C@H]3[C@H](O)[C@@H](NC(C)=O)C(O)O[C@@H]3COS(=O)(=O)O)[C@@H]2O)O[C@H](COS(=O)(=O)O)[C@@H](O[C@@H]2O[C@H](CO)[C@H](O)[C@H](O)[C@H]2O)[C@@H]1O` (stereo partly drawn) [L2L4, Gal β1-4 GlcNAc6S β1-3 Gal6S β1-4 GlcNAc6S], the “V − V0 Value” on Galectin-1 was 5.8 ± 0.2 µL; on Galectin-3 [1] it was 15.8 ± 1.8 µL; on Galectin-8C, <5.0 µL; at Galectin-8N it was <5.0 µL; on Galectin-9C, 5.3 ± 0.7 µL; on Galectin-9N, 6.6 ± 1.4 µL. Besides, the “binding to galectin-1 (in words)” value at Galectin-1 is reported as “showed binding affinity”. On Galectin-3 [1], the “binding to galectin-3 (in words)” value is listed as “showed binding affinity”. At Galectin-9C, the “binding to galectin-9C (in words)” value is given as “showed binding affinity”. Also, the “binding to galectin-9N (in words)” value at Galectin-9N was “showed binding affinity”. In addition, the “binding to the tested galectin molecules (in words)” value in experiment [3] was “bound to various galectin molecules”.

For “Gal β1-4 GlcNAc6S β1-3 Gal β1-4 GlcNAc6S [L2L2]”, the “V − V0 Value” at Galectin-1 is 6.2 ± 1.7 µL; on Galectin-3 [1], 22.6 ± 1.1 µL; on Galectin-8C it was <5.0 µL; on Galectin-8N, <5.0 µL; on Galectin-9C it was 7.7 ± 0.4 µL; at Galectin-9N it was 8.8 ± 0.3 µL. Also, the “binding to galectin-1 (in words)” value at Galectin-1 is on record as “showed binding affinity”. Moreover, at Galectin-3 [1], the “binding to galectin-3 (in words)” value is “showed binding affinity”. For the same molecule, the “binding to galectin-9C (in words)” value on Galectin-9C is “showed binding affinity”. Moreover, the “binding to galectin-9N (in words)” value at Galectin-9N was “showed binding affinity”. The “binding to the tested galectin molecules (in words)” value in experiment [3] is “bound to various galectin molecules”.
